Reference: ChEMBL document CHEMBL2046382, “Synthesis, biological evaluation of 5-carbomethoxymethyl-7-hydroxy-2-pentylchromone, 5-carboethoxymethyl-4',7-dihydroxyflavone and their analogues” (Bioorg Med Chem Lett, 2012)
Converted amounts (≈) assume the structure as drawn. The source made the active and inactive calls. The calls are words filed in the database; no cut-off is given here.

Legend:
Erythrocyte = test: Antioxidant activity in erythrocytes assessed as inhibition of hemolysis after 48 hrs; type: functional, cell-based
NCI60 = test: Cytotoxicity against human NCI60 cells; type: functional, cell-based
[1] = Antioxidant activity of the compound assessed as inhibition of lipid peroxidation after 48 hrs; type: functional
Escherichia coli [2] = test: Antibacterial activity against Escherichia coli MTCC 739 at 80 ug/ml by modified microtiter broth dilution method; type: functional, organism-based
[3] = tested on: Radical scavenging activity; test: Antioxidant activity assessed as DPPH free radical scavenging activity after 48 hrs; type: functional
Raoultella planticola [4] = test: Antibacterial activity against Klebsiella planticola MTCC 530 at 80 ug/ml by modified microtiter broth dilution method; type: functional, organism-based
Micrococcus luteus [5] = test: Antibacterial activity against Micrococcus luteus MTCC 2470 at 80 ug/ml by modified microtiter broth dilution method; type: functional, organism-based
Staphylococcus aureus [6] = test: Antibacterial activity against Staphylococcus aureus MTCC 96 at 80 ug/ml by modified microtiter broth dilution method; type: functional, organism-based
Pseudomonas aeruginosa [7] = test: Antibacterial activity against Pseudomonas aeruginosa MTCC 2453 at 80 ug/ml by modified microtiter broth dilution method; type: functional, organism-based
Staphylococcus aureus [8] = test: Antibacterial activity against Staphylococcus aureus MTCC 2940 at 80 ug/ml by modified microtiter broth dilution method; type: functional, organism-based
Bacillus subtilis [9] = test: Antibacterial activity against Bacillus subtilis MTCC 121 by modified microtiter broth dilution method; type: functional
[10] = Chemical stability of the compound in antioxidant reaction; type: physicochemical
[11] = Antioxidant activity assessed as superoxide radical scavenging activity after 48 hrs; type: functional
Raoultella planticola [12] = test: Antibacterial activity against Klebsiella planticola MTCC 530 by modified microtiter broth dilution method; type: functional
Micrococcus luteus [13] = test: Antibacterial activity against Micrococcus luteus MTCC 2470 by modified microtiter broth dilution method; type: functional
Pseudomonas aeruginosa [14] = test: Antibacterial activity against Pseudomonas aeruginosa MTCC 2453 by modified microtiter broth dilution method; type: functional
Escherichia coli [15] = test: Antibacterial activity against Escherichia coli MTCC 739 by modified microtiter broth dilution method; type: functional
Staphylococcus aureus [16] = test: Antibacterial activity against Staphylococcus aureus MTCC 2940 by modified microtiter broth dilution method; type: functional
Staphylococcus aureus [17] = test: Antibacterial activity against Staphylococcus aureus MTCC 96 by modified microtiter broth dilution method; type: functional
Bacillus subtilis [18] = test: Antibacterial activity against Bacillus subtilis MTCC 121 at 80 ug/ml by modified microtiter broth dilution method; type: functional, organism-based
[19] = Antioxidant activity assessed as superoxide radical scavenging activity; type: functional
[20] = Antioxidant activity of the compound assessed as inhibition of lipid peroxidation; type: functional
[21] = Antioxidant activity in erythrocytes assessed as inhibition of hemolysis; type: functional, cell-based; settings: erythrocyte
[22] = tested on: Radical scavenging activity; test: Antioxidant activity assessed as DPPH free radical scavenging activity; type: functional

| Structure (SMILES) | Activity (Erythrocyte) | Activity (NCI60) | Activity [1] | Activity (Escherichia coli [2]) | Activity [3] | Activity (Raoultella planticola [4]) | Activity (Micrococcus luteus [5]) | Activity (Staphylococcus aureus [6]) | Activity (Staphylococcus aureus [8]) | MIC (Bacillus subtilis [9]) | Stability [10] | Activity [11] | MIC (Pseudomonas aeruginosa [14]) | MIC (Escherichia coli [15]) | MIC (Staphylococcus aureus [16]) | Activity (Bacillus subtilis [18]) | EC50 [19] | EC50 [20] | EC50 [21] | EC50 [22] | further results |
| --- | --- | --- | --- | --- | --- | --- | --- | --- | --- | --- | --- | --- | --- | --- | --- | --- | --- | --- | --- | --- | --- |
| COC(=O)Cc1cc(O)cc2oc(-c3ccc(N)cc3)cc(=O)c12 | inactive | inactive | inactive | inactive | inactive | inactive | inactive | inactive | inactive | 9 µg/mL (≈ 27.7 µM) | Unstable | inactive | – | – | – | – | – | – | – | – | Activity (Pseudomonas aeruginosa [7]): inactive |
| COC(=O)Cc1cc(O)cc2oc(-c3ccc(C)cc3)cc(=O)c12 | inactive | inactive | inactive | – | inactive | – | – | – | – | 4 µg/mL (≈ 12.3 µM) | Unstable | inactive | 9 µg/mL (≈ 27.7 µM) | 4 µg/mL (≈ 12.3 µM) | 18 µg/mL (≈ 55.5 µM) | – | – | – | – | – | MIC (Raoultella planticola [12]): 18 µg/mL (≈ 55.5 µM); MIC (Micrococcus luteus [13]): 18 µg/mL (≈ 55.5 µM); MIC (Staphylococcus aureus [17]): 9 µg/mL (≈ 27.7 µM) |
| COC(=O)Cc1cc(O)cc2oc(-c3ccc(OC)c(O)c3)cc(=O)c12 | inactive | inactive | inactive | – | inactive | inactive | inactive | inactive | – | – | Unstable | inactive | 9 µg/mL (≈ 25.3 µM) | 18 µg/mL (≈ 50.5 µM) | 37 µg/mL (≈ 104 µM) | inactive | – | – | – | – | – |
| COC(=O)Cc1cc(O)cc2oc(-c3ccc(OC)cc3)cc(=O)c12 | inactive | inactive | inactive | – | inactive | inactive | inactive | inactive | inactive | 9 µg/mL (≈ 26.4 µM) | Unstable | inactive | 37 µg/mL (≈ 109 µM) | 18 µg/mL (≈ 52.9 µM) | – | – | – | – | – | – | – |
| COC(=O)Cc1cc(O)cc2oc(-c3ccc(OC)c(OC)c3)cc(=O)c12 | inactive | inactive | inactive | inactive | inactive | – | inactive | – | inactive | 9 µg/mL (≈ 24.3 µM) | Unstable | inactive | – | – | – | – | – | – | – | – | MIC (Raoultella planticola [12]): 18 µg/mL (≈ 48.6 µM); Activity (Pseudomonas aeruginosa [7]): inactive; MIC (Staphylococcus aureus [17]): 37 µg/mL (≈ 99.9 µM) |
| COC(=O)Cc1cc(O)cc2oc(-c3cc(OC)cc(OC)c3)cc(=O)c12 | inactive | inactive | inactive | – | inactive | – | – | – | – | 18 µg/mL (≈ 48.6 µM) | Unstable | inactive | 9 µg/mL (≈ 24.3 µM) | 4 µg/mL (≈ 10.8 µM) | 18 µg/mL (≈ 48.6 µM) | – | – | – | – | – | MIC (Raoultella planticola [12]): 18 µg/mL (≈ 48.6 µM); MIC (Micrococcus luteus [13]): 9 µg/mL (≈ 24.3 µM); MIC (Staphylococcus aureus [17]): 9 µg/mL (≈ 24.3 µM) |
| COC(=O)Cc1cc(O)cc2oc(-c3ccc(O)c(O)c3)cc(=O)c12 | – | – | – | inactive | – | inactive | inactive | inactive | – | – | – | – | 9 µg/mL (≈ 26.3 µM) | – | 9 µg/mL (≈ 26.3 µM) | inactive | 44.08 µg/mL (≈ 129 µM) | 142 µg/mL (≈ 415 µM) | 127.98 µg/mL (≈ 374 µM) | 49.99 µg/mL (≈ 146 µM) | – |
| COC(=O)Cc1cc(O)cc2oc(-c3cc(O)c(O)c(O)c3)cc(=O)c12 | – | – | – | inactive | – | – | inactive | inactive | – | – | – | – | – | – | 9 µg/mL (≈ 25.1 µM) | inactive | 50.09 µg/mL (≈ 140 µM) | 156.21 µg/mL (≈ 436 µM) | 139.76 µg/mL (≈ 390 µM) | 55.08 µg/mL (≈ 154 µM) | MIC (Raoultella planticola [12]): 9 µg/mL (≈ 25.1 µM); Activity (Pseudomonas aeruginosa [7]): inactive |
| CCOC(=O)Cc1cc(O)cc2oc(-c3ccc(O)cc3)cc(=O)c12 | – | – | – | – | – | – | – | inactive | inactive | 9 µg/mL (≈ 26.4 µM) | – | – | – | 9 µg/mL (≈ 26.4 µM) | – | – | 77.71 µg/mL (≈ 228 µM) | 171.54 µg/mL (≈ 504 µM) | 151.1 µg/mL (≈ 444 µM) | 71.11 µg/mL (≈ 209 µM) | MIC (Raoultella planticola [12]): 9 µg/mL (≈ 26.4 µM); MIC (Micrococcus luteus [13]): 9 µg/mL (≈ 26.4 µM); Activity (Pseudomonas aeruginosa [7]): inactive |
| O=c1cc(-c2ccc(O)c(O)c2)oc2cc(O)cc(O)c12 [LUTEOLIN] | – | – | – | – | – | inactive | – | – | – | – | – | – | – | 4 µg/mL (≈ 14 µM) | 18 µg/mL (≈ 62.9 µM) | inactive | 31.01 µg/mL (≈ 108 µM) | 134.1 µg/mL (≈ 468 µM) | 122 µg/mL (≈ 426 µM) | 44.18 µg/mL (≈ 154 µM) | MIC (Micrococcus luteus [13]): 18 µg/mL (≈ 62.9 µM); Activity (Pseudomonas aeruginosa [7]): inactive; MIC (Staphylococcus aureus [17]): 9 µg/mL (≈ 31.4 µM) |
| COC(=O)Cc1cc(O)cc2oc(-c3cc(O)ccc3O)cc(=O)c12 | inactive | – | inactive | – | inactive | inactive | – | inactive | inactive | – | Unstable | inactive | 18 µg/mL (≈ 52.6 µM) | 18 µg/mL (≈ 52.6 µM) | – | inactive | 106.22 µg/mL (≈ 310 µM) | 221.12 µg/mL (≈ 646 µM) | 209.56 µg/mL (≈ 612 µM) | 119.11 µg/mL (≈ 348 µM) | MIC (Micrococcus luteus [13]): 37 µg/mL (≈ 108 µM) |
| COC(=O)Cc1cc(O)cc2oc(-c3cccc(OC)c3Cl)cc(=O)c12 | inactive | – | inactive | inactive | inactive | inactive | inactive | – | inactive | – | Unstable | inactive | – | – | – | inactive | – | – | – | – | Activity (Pseudomonas aeruginosa [7]): inactive; MIC (Staphylococcus aureus [17]): 9 µg/mL (≈ 24 µM) |
| COC(=O)Cc1cc(O)cc2oc(-c3ccc(O)c(OC)c3)cc(=O)c12 | inactive | inactive | inactive | – | inactive | – | – | – | – | 4 µg/mL (≈ 11.2 µM) | Unstable | inactive | 9 µg/mL (≈ 25.3 µM) | 4 µg/mL (≈ 11.2 µM) | 18 µg/mL (≈ 50.5 µM) | – | – | – | – | – | MIC (Raoultella planticola [12]): 9 µg/mL (≈ 25.3 µM); MIC (Micrococcus luteus [13]): 18 µg/mL (≈ 50.5 µM); MIC (Staphylococcus aureus [17]): 9 µg/mL (≈ 25.3 µM) |
| COC(=O)Cc1cc(O)cc2oc(-c3ccc(O)cc3O)cc(=O)c12 | – | – | – | inactive | – | inactive | inactive | inactive | inactive | – | – | – | 9 µg/mL (≈ 26.3 µM) | – | – | inactive | 60.9 µg/mL (≈ 178 µM) | Not Active | Not Active | 60 µg/mL (≈ 175 µM) | – |
| O=C1O[C@H]([C@@H](O)CO)C(O)=C1O [ASCORBIC ACID] | – | – | – | – | – | – | – | – | – | – | – | – | – | – | – | – | 21.01 µg/mL (≈ 119 µM) | 139.97 µg/mL (≈ 795 µM) | 119.87 µg/mL (≈ 681 µM) | 40.28 µg/mL (≈ 229 µM) | – |
